In patent US10017506B2, “ATX modulating agents” (BIOGEN MA INC., priority 2012, dated 2018):

Biological target: T1, Human ATX protein (Homo sapiens, UniProt Q13822)
T1 construct: made in house
Test: ATX biochemical FRET assay with FS-3 substrate
Conditions: FRET substrate FS-3 2 μM, ATX 1.0 μg/mL, 30 minutes pre-incubation, 2 hours at room temperature; read-out: IC50
How it was run: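 Enzyme at 1.0 μg/mL final, pre-incubated with compound (10-point, 3-fold series) for 30 min at RT in Tris pH 7.4 buffer with NaCl, KCl, CaCl2, MgCl2 and 1 mg/mL fatty-acid-free BSA. After FS-3 addition, 2 h at RT protected from light; fluorescence at 485/538 nm.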

Row | SMILES | IC50 [nM]
1 | CCC(NC1CC(C(=O)O)C1(C)C)c1ccc2ccc(O[C@H]3CC[C@@H](C)CC3)c(C(F)(F)F)c2c1 (stereo partly drawn) [Example 105, 2,2-dimethyl-3-((1-(7-((cis-4-methylcyclohexyl)oxy)-8-(trifluoromethyl)naphthalen-2-yl)propyl)amino)cyclobutanecarboxylic acid] | ≤ 100
2 | CC[C@H]1CC[C@@H](Oc2ccc3ccc([C@@H](C)N[C@H]4C[C@@H](C(=O)O)C4(C)C)cc3c2C(F)(F)F)CC1 [Example 118d, (1R,3S)-3-(((R)-1-(7-((cis-4-ethylcyclohexyl)oxy)-8-(trifluoromethyl)naphthalen-2-yl)ethyl)amino)-2,2-dimethylcyclobutanecarboxylic acid] | ≤ 500
3 | CC(c1ccc2ccc(O[C@H]3CC[C@@H](C)CC3)c(C(F)(F)F)c2c1)N1CCC[C@H](CC(=O)O)C1 (stereo partly drawn) [Example 81, 2-((3R)-1-(1-(7-((cis-4-methylcyclohexyl)oxy)-8-(trifluoromethyl)naphthalen-2-yl)ethyl)piperidin-3-yl)acetic acid] | ≤ 250
4 | CCC(c1ccc2ccc(O[C@H]3CC[C@@H](C(F)(F)F)CC3)c(C(F)(F)F)c2c1)N1CCC(C(=O)O)CC1 (stereo partly drawn) [Example 45, 1-(1-(8-(trifluoromethyl)-7-((cis-4-(trifluoromethyl)cyclohexyl)oxy)naphthalene-2-yl)propyl)piperidine-4-carboxylic acid] | ≤ 250
5 | CC(C)(C)[C@H]1CC[C@H](Nc2cc3cc(C(=O)NC4CCCC(C(=O)O)C4)ccc3cn2)CC1 (stereo partly drawn) [Example 150, 3-(3-((trans-4-(tert-butyl)cyclohexyl)amino)isoquinoline-6-carboxamido)cyclohexanecarboxylic acid] | ≤ 250
6 | CC[C@H]1CC[C@@H](Oc2ccc3ccc([C@H](C)N[C@H]4C[C@@H](C(=O)O)C4(C)C)cc3c2C(F)(F)F)CC1 [Example 118b, (1R,3S)-3-(((S)-1-(7-((cis-4-ethylcyclohexyl)oxy)-8-(trifluoromethyl)naphthalen-2-yl)ethyl)amino)-2,2-dimethylcyclobutanecarboxylic acid] | ≤ 100
7 | C[C@@H](N[C@H]1C[C@@H](C(=O)O)C1(C)C)c1ccc2ccc(O[C@H]3CC[C@@H](C)CC3)c(C(F)(F)F)c2c1 [Example 114d, (1R,3S)-2,2-dimethyl-3-(((R)-1-(7-((cis-4-methylcyclohexyl)oxy)-8-(trifluoromethyl)naphthalen-2-yl)ethyl)amino)cyclobutanecarboxylic acid] | ≤ 500
8 | C[C@H](N[C@H]1CC[C@@H](C(=O)O)CC1)c1ccc2ccc(O[C@H]3CC[C@@H](C(F)(F)F)CC3)c(C(F)(F)F)c2c1 [Example 136a, cis-4-(((S)-1-(8-(trifluoromethyl)-7-((cis-4-(trifluoromethyl)cyclohexyl)oxy)naphthalen-2-yl)ethyl)amino)cyclohexanecarboxylic acid] | ≤ 100
9 | CC[C@H]1CC[C@@H](Oc2ccc3ccc(C(C)N[C@H]4C[C@@H](C(=O)O)C4(C)C)cc3c2Cl)CC1 (stereo partly drawn) [Example 67, (1R,3S)-3-((1-(8-chloro-7-((cis-4-ethylcyclohexyl)oxy)naphthalen-2-yl)ethyl)amino)-2,2-dimethylcyclobutanecarboxylic acid] | ≤ 250
10 | O=C(O)C1CCCN(Cc2ccc3ccc(O[C@H]4CC[C@@H](C(F)(F)F)CC4)c(C(F)(F)F)c3c2)CC1 (stereo partly drawn) [Example 123, 1-((8-(trifluoromethyl)-7-((cis-4-(trifluoromethyl)cyclohexyl)oxy)naphthalen-2-yl)methyl)azepane-4-carboxylic acid] | ≤ 250
11 | C[C@@H](N[C@H]1C[C@H](C(=O)O)C1(C)C)c1ccc2ccc(O[C@H]3CC[C@@H](C)CC3)c(C(F)(F)F)c2c1 [Example 114c, (1S,3S)-2,2-dimethyl-3-(((R)-1-(7-((cis-4-methylcyclohexyl)oxy)-8-(trifluoromethyl)naphthalen-2-yl)ethyl)amino)cyclobutanecarboxylic acid] | ≤ 100
12 | CC(NC1CC(C(=O)O)C1(C)C)c1ccc2ccc(O[C@H]3CC[C@@H](C)CC3)c(C(F)(F)F)c2c1 (stereo partly drawn) [Example 82, 2,2-dimethyl-3-((1-(7-((cis-4-methylcyclohexyl)oxy)-8-(trifluoromethyl)naphthalen-2-yl)ethyl)amino)cyclobutanecarboxylic acid] | ≤ 100

Same assay, conditions: IC50, FRET substrate FS-3 2 μM, ATX 1.0 μg/mL, 30 minutes pre-incubation, 2 hours at room temperature

Row | SMILES | IC50 [nM]
13 | CC[C@H]1CC[C@@H](Oc2ccc3ccc(C(C)N4C5CCC4CC(C(=O)O)C5)cc3c2Cl)CC1 (stereo partly drawn) [Example 65, 8-(1-(8-chloro-7-((cis-4-ethylcyclohexyl)oxy)naphthalen-2-yl)ethyl)-8-azabicyclo[3.2.1]octane-3-carboxylic acid] | ≤ 250
14 | CC(C)[C@H]1CC[C@@H](Oc2ccc3ccc(CN4C5CCCC4CC(C(=O)O)C5)cc3c2C(F)(F)F)CC1 (stereo partly drawn) [Example 108, 9-((7-((cis-4-isopropylcyclohexyl)oxy)-8-(trifluoromethyl)naphthalen-2-yl)methyl)-9-azabicyclo[3.3.1]nonane-3-carboxylic acid] | ≤ 100
15 | CC(c1ccc2ccc(O[C@H]3CC[C@@H](C(F)(F)F)CC3)c(Cl)c2c1)N1C2CCC1CC(C(=O)O)C2 (stereo partly drawn) [Example 29, 8-(1-(8-chloro-7-((cis-4-(trifluoromethyl)cyclohexyl)oxy)naphthalen-2-yl)ethyl)-8-azabicyclo[3.2.1]octane-3-carboxylic acid] | ≤ 250
16 | CC[C@H]1CC[C@@H](Oc2ccc3ccc([C@H](C)N4C5CCC4CC(C(=O)O)C5)cc3c2C(F)(F)F)CC1 (stereo partly drawn) [Example 144a, 8-((S)-1-(7-((cis-4-ethylcyclohexyl)oxy)-8-(trifluoromethyl)naphthalen-2-yl)ethyl)-8-azabicyclo[3.2.1]octane-3-carboxylic acid] | ≤ 500
17 | O=C(O)C1CC2CCC(C1)N2C(=O)c1ccc2ccc(O[C@H]3CC[C@@H](C(F)(F)F)CC3)c(C(F)(F)F)c2c1 (relative stereo) [Example 23, 8-(8-(trifluoromethyl)-7-((cis-4-(trifluoromethyl)cyclohexyl)oxy)-2-naphthoyl)-8-azabicyclo[3.2.1]octane-3-carboxylic acid] | ≤ 250
18 | CC(c1ccc2ccc(O[C@H]3CC[C@@H](C)CC3)c(Cl)c2c1)N1C2CCC1CC(C(=O)O)C2 (stereo partly drawn) [Example 90, 8-(1-(8-chloro-7-((cis-4-methylcyclohexyl)oxy)naphthalen-2-yl)ethyl)-8-azabicyclo[3.2.1]octane-3-carboxylic acid] | ≤ 250
19 | C[C@H]1CC[C@@H](Oc2ccc3ccc(CN4C5CCC4CC(C(=O)O)C5)cc3c2Cl)CC1 (stereo partly drawn) [Example 83, 8-((8-chloro-7-((cis-4-methylcyclohexyl)oxy)naphthalen-2-yl)methyl)-8-azabicyclo[3.2.1]octane-3-carboxylic acid] | ≤ 250
20 | CC(c1ccc2ccc(O[C@H]3CC[C@@H](C(F)(F)F)CC3)c(C(F)(F)F)c2c1)N1C2CCCC1CC(C(=O)O)C2 (stereo partly drawn) [Example 10, 9-{1-[7-(cis-4-trifluoromethyl-cyclohexyloxy)-8-trifluoromethyl-naphthalen-2-yl]-ethyl}-9-aza-bicyclo[3.3.1]nonane-3-carboxylic acid] | ≤ 100
21 | CC(c1ccc2ccc(O[C@H]3CC[C@@H](C)CC3)c(C(F)F)c2c1)N1C2CCC1CC(C(=O)O)C2 (stereo partly drawn) [Example 87, 8-(1-(8-(difluoromethyl)-7-((cis-4-methylcyclohexyl)oxy)naphthalen-2-yl)ethyl)-8-azabicyclo[3.2.1]octane-3-carboxylic acid] | ≤ 100
